Test results as given in the supplement of paper PMC10883282.
± gives the standard deviation of the averaged measurements.

System: KHOS-NP
Assay: relative viability vs DMSO control (72 h) (fraction); higher = more viable cells
In short: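 Relative viability is percent growth read by ATPLite and averaged over up to triplicate wells. Sarcoma cells were seeded in 384-well plates to reach 80–90% confluence and given 2.5 µl of serially diluted compound after 24 h, from source plates of 10 mM to 0.0002 mM. Incubation lasted 72 h at 37 °C, 5% CO2, with 0.1% DMSO vehicle and a 5 µM positive control, and the data were rescaled so 1 equals full and 0 equals none.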

| SMILES | relative viability (0.00017 µM) | relative viability (0.00051 µM) | relative viability (0.00152 µM) | relative viability (0.00457 µM) | relative viability (0.01372 µM) | relative viability (0.04115 µM) | relative viability (0.1235 µM) | relative viability (0.3704 µM) | relative viability (1.111 µM) | relative viability (3.333 µM) | relative viability (10 µM) |
| --- | --- | --- | --- | --- | --- | --- | --- | --- | --- | --- | --- |
| COc1cc2/c(=N/c3ccc(Br)cc3F)nc[nH]c2cc1OCC1CCN(C)CC1 [Vandetanib] | 1.05 ± 0.032 | 1.036 ± 0.0034 | 1.04 ± 0.014 | 1.05 ± 0.018 | 1.05 ± 0.045 | 1.04 ± 0.029 | 1.05 ± 0.024 | 1.03 ± 0.015 | 1.02 ± 0.017 | 0.888 ± 0.044 | 0.551 ± 0.023 |
| CCCS(=O)(=O)Nc1ccc(F)c(C(=O)c2c[nH]c3ncc(-c4ccc(Cl)cc4)cc23)c1F [Vemurafenib] | 1.08 ± 0.029 | 1.074 ± 0.0078 | 1.08 ± 0.032 | 1.09 ± 0.017 | 1.09 ± 0.025 | 1.08 ± 0.023 | 1.09 ± 0.03 | 1.08 ± 0.03 | 1.07 ± 0.034 | 1.06 ± 0.018 | 0.601 ± 0.031 |
| C[C@@H](c1ccc2nccn2c1)n1nnc2ncc(-c3cnn(C)c3)nc21 [Volitinib] | 1.07 ± 0.012 | 1.09 ± 0.018 | 1.09 ± 0.013 | 1.091 ± 0.0095 | 1.08 ± 0.015 | 1.08 ± 0.024 | 1.07 ± 0.015 | 1.06 ± 0.038 | 1.04 ± 0.035 | 1.02 ± 0.011 | 0.8916 ± 0.004 |
| C=CC(=O)N1CCC([C@@H]2CCNc3c(C(N)=O)c(-c4ccc(Oc5ccccc5)cc4)nn32)CC1 [Zanubrutinib] | 1.01 ± 0.015 | 1.03 ± 0.024 | 1.03 ± 0.032 | 1.01 ± 0.015 | 1.041 ± 0.0094 | 1.05 ± 0.018 | 1.01 ± 0.013 | 1.04 ± 0.015 | 1.02 ± 0.023 | 1.01 ± 0.029 | 1.05 ± 0.03 |
